Laboratory results from US6809065B2, “Herbicide containing substituted pyrazole derivative as active ingredient” (SDS Biotech K.K., priority 2001, dated 2004).

What was measured:
[1] = tested on: rice (Oryza sative, variety: Koshihikari); experiment: Paddy field treatment (Test Example 3), crop; format: in vivo, Oryza sativa; conditions: transplanted rice two-leaf period, water surface treatment 10th day after transplantation, 1 kg active ingredient per hectare, evaluated 21st day, lower index = higher safety
Outline: (§1)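 Pot test, flooded paddy soil (4 cm water); weeds sown, 2-leaf rice (Koshihikari) transplanted. Day 10 post-transplant: WP dropped on water, 1 kg a.i./ha. Score index at 21 d after application; higher = stronger herbicidal effect.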

[2] = tested on: Digitaria adscendens; experiment: Upland field foliage treatment (Test Example 1); format: in vivo; conditions: foliage treatment 14th day after sowing, wettable powder, 1 kg active ingredient per hectare, evaluated 21st day after application
Outline: (§2)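 Read-out is a visual index scored 21 days after treatment. Higher values mean more herbicidal effect on weeds and lower values mean better crop safety. Plants were raised from seed in upland soil and received a leaf-surface spray of 1 kg active ingredient per hectare at 14 days.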

[3] = tested on: Stellaria media; experiment: Upland field foliage treatment (Test Example 1); format: in vivo; conditions: foliage treatment 14th day after sowing, wettable powder, 1 kg active ingredient per hectare, evaluated 21st day after application
Outline: as §2

[4] = tested on: Setaria viridis; experiment: Upland field foliage treatment (Test Example 1); format: in vivo; conditions: foliage treatment 14th day after sowing, wettable powder, 1 kg active ingredient per hectare, evaluated 21st day after application
Outline: as §2

[5] = tested on: Chenopodium album; experiment: Upland field foliage treatment (Test Example 1); format: in vivo; conditions: foliage treatment 14th day after sowing, wettable powder, 1 kg active ingredient per hectare, evaluated 21st day after application
Outline: as §2

[6] = tested on: wheat (Triticum aestivum); experiment: Upland soil treatment (Test Example 2), crop; format: in vivo; conditions: soil surface treatment next day after sowing, 1 kg active ingredient per hectare, evaluated 21st day, lower index = higher safety
Outline: (§3)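 Scored 21 days post-application on an index scale where higher values mean greater herbicidal effect on weeds and lower values mean greater crop safety. Treatment was a water-diluted wettable powder sprayed evenly onto the soil surface at 1 kg active ingredient per hectare, one day after seeding.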

[7] = tested on: soybean (Glycine max); experiment: Upland soil treatment (Test Example 2), crop; format: in vivo; conditions: soil surface treatment next day after sowing, 1 kg active ingredient per hectare, evaluated 21st day, lower index = higher safety
Outline: as §3

[8] = tested on: wheat (Triticum aestivum); experiment: Upland field foliage treatment (Test Example 1), crop; format: in vivo; conditions: foliage treatment 14th day after sowing, 1 kg active ingredient per hectare, evaluated 21st day, lower index = higher safety
Outline: as §2

[9] = tested on: soybean (Glycine max); experiment: as above; format: in vivo; conditions: foliage treatment 14th day after sowing, 1 kg active ingredient per hectare, evaluated 21st day, lower index = higher safety
Outline: as §2

[10] = tested on: Echinochloa spp.; experiment: Paddy field treatment (Test Example 3); format: in vivo, Echinochloa crusgalli; conditions: paddy pot, submerged 4 cm, dropped on water surface 10th day after transplantation, 1 kg active ingredient per hectare, evaluated 21st day
Outline: as §1

[11] = tested on: Scirpus juncoides; experiment: Paddy field treatment (Test Example 3); format: in vivo; conditions: paddy pot, submerged 4 cm, dropped on water surface 10th day after transplantation, 1 kg active ingredient per hectare, evaluated 21st day
Outline: as §1

[12] = tested on: Monochoria vaginalis; experiment: Paddy field treatment (Test Example 3); format: in vivo; conditions: paddy pot, submerged 4 cm, dropped on water surface 10th day after transplantation, 1 kg active ingredient per hectare, evaluated 21st day
Outline: as §1

[13] = tested on: Ammannia multiflora; experiment: Paddy field treatment (Test Example 3); format: in vivo; conditions: paddy pot, submerged 4 cm, dropped on water surface 10th day after transplantation, 1 kg active ingredient per hectare, evaluated 21st day
Outline: as §1

[14] = tested on: Digitaria adscendens; experiment: Upland soil treatment (Test Example 2); format: in vivo; conditions: soil surface treatment next day after sowing, wettable powder, 1 kg active ingredient per hectare, evaluated 21st day after application
Outline: as §3

[15] = tested on: Stellaria media; experiment: Upland soil treatment (Test Example 2); format: in vivo; conditions: soil surface treatment next day after sowing, wettable powder, 1 kg active ingredient per hectare, evaluated 21st day after application
Outline: as §3

[16] = tested on: Setaria viridis; experiment: Upland soil treatment (Test Example 2); format: in vivo; conditions: soil surface treatment next day after sowing, wettable powder, 1 kg active ingredient per hectare, evaluated 21st day after application
Outline: as §3

[17] = tested on: Chenopodium album; experiment: Upland soil treatment (Test Example 2); format: in vivo; conditions: soil surface treatment next day after sowing, wettable powder, 1 kg active ingredient per hectare, evaluated 21st day after application
Outline: as §3

Question: Which results are given for `COC=C(Cn1nc(-c2ccccc2)cc1C)C(=O)OC` [Compound 2]?
Answer: Herbicidal activity Oryza sativa [1]: 0 (herbicidal effect of not less than 0% by weight and less than 10% by weight); Herbicidal activity Digitaria adscendens [2]: 4 (herbicidal effect of not less than 70% by weight and less than 90% by weight); Herbicidal activity Stellaria media [3]: 4 (herbicidal effect of not less than 70% by weight and less than 90% by weight); Herbicidal activity Setaria viridis [4]: 4 (herbicidal effect of not less than 70% by weight and less than 90% by weight); Herbicidal activity Chenopodium album [5]: 4 (herbicidal effect of not less than 70% by weight and less than 90% by weight); Herbicidal activity Triticum aestivum [6]: 0 (herbicidal effect of not less than 0% by weight and less than 10% by weight); Herbicidal activity Glycine max [7]: 0 (herbicidal effect of not less than 0% by weight and less than 10% by weight); Herbicidal activity Triticum aestivum [8]: 0 (herbicidal effect of not less than 0% by weight and less than 10% by weight); Herbicidal activity Glycine max [9]: 0 (herbicidal effect of not less than 0% by weight and less than 10% by weight); Herbicidal activity Echinochloa spp. [10]: 3 (herbicidal effect of not less than 50% by weight and less than 70% by weight); Herbicidal activity Scirpus juncoides [11]: 3 (herbicidal effect of not less than 50% by weight and less than 70% by weight); Herbicidal activity Monochoria vaginalis [12]: 3 (herbicidal effect of not less than 50% by weight and less than 70% by weight); Herbicidal activity Ammannia multiflora [13]: 3 (herbicidal effect of not less than 50% by weight and less than 70% by weight); Herbicidal activity Digitaria adscendens [14]: 4 (herbicidal effect of not less than 70% by weight and less than 90% by weight); Herbicidal activity Stellaria media [15]: 4 (herbicidal effect of not less than 70% by weight and less than 90% by weight); Herbicidal activity Setaria viridis [16]: 4 (herbicidal effect of not less than 70% by weight and less than 90% by weight); Herbicidal activity Chenopodium album [17]: 4 (herbicidal effect of not less than 70% by weight and less than 90% by weight)

Question: For `COC=C(Cn1nc(-c2cc(Cl)ccc2Cl)c(Cl)c1C)C(=O)OC` [Compound 22], which “Herbicidal activity Oryza sativa” value [1] is on record?
Answer: Its value is 1 (herbicidal effect of not less than 10% by weight and less than 30% by weight).

Question: What about the “Herbicidal activity Digitaria adscendens” value [2] of the same molecule?
Answer: Its value is 5 (herbicidal effect of not less than 90% by weight).

Question: What about the “Herbicidal activity Stellaria media” value [3] of the same molecule?
Answer: Its value is 5 (herbicidal effect of not less than 90% by weight).

Question: What about the “Herbicidal activity Setaria viridis” value [4] of the same molecule?
Answer: The value was 4 (herbicidal effect of not less than 70% by weight and less than 90% by weight).

Question: And the “Herbicidal activity Chenopodium album” value [5]?
Answer: Its value is 5 (herbicidal effect of not less than 90% by weight).

Question: What about the “Herbicidal activity Triticum aestivum” value [6] of the same molecule?
Answer: Its value is 0 (herbicidal effect of not less than 0% by weight and less than 10% by weight).

Question: And the “Herbicidal activity Glycine max” value [7]?
Answer: The value was 0 (herbicidal effect of not less than 0% by weight and less than 10% by weight).

Question: What about the “Herbicidal activity Triticum aestivum” value [8] of the same molecule?
Answer: Its value is 0 (herbicidal effect of not less than 0% by weight and less than 10% by weight).

Question: What about the “Herbicidal activity Glycine max” value [9] of the same molecule?
Answer: Its value is 0 (herbicidal effect of not less than 0% by weight and less than 10% by weight).

Question: And the “Herbicidal activity Echinochloa spp.” value [10]?
Answer: Its value is 5 (herbicidal effect of not less than 90% by weight).

Question: And the “Herbicidal activity Scirpus juncoides” value [11]?
Answer: Its value is 5 (herbicidal effect of not less than 90% by weight).

Question: What about the “Herbicidal activity Monochoria vaginalis” value [12] of the same molecule?
Answer: The value was 5 (herbicidal effect of not less than 90% by weight).

Question: What about the “Herbicidal activity Ammannia multiflora” value [13] of the same molecule?
Answer: Its value is 5 (herbicidal effect of not less than 90% by weight).

Question: What about the “Herbicidal activity Digitaria adscendens” value [14] of the same molecule?
Answer: Its value is 5 (herbicidal effect of not less than 90% by weight).

Question: What about the “Herbicidal activity Stellaria media” value [15] of the same molecule?
Answer: Its value is 5 (herbicidal effect of not less than 90% by weight).

Question: What about the “Herbicidal activity Setaria viridis” value [16] of the same molecule?
Answer: Its value is 5 (herbicidal effect of not less than 90% by weight).

Question: And the “Herbicidal activity Chenopodium album” value [17]?
Answer: Its value is 5 (herbicidal effect of not less than 90% by weight).

Question: How did the “Herbicidal activity Oryza sativa” value [1] turn out when `COC=C(Cn1nc(-c2cccc(Cl)c2)c(Cl)c1SC)C(=O)OC` [Compound 42] was run?
Answer: Its value is 0 (herbicidal effect of not less than 0% by weight and less than 10% by weight).

Question: And the “Herbicidal activity Digitaria adscendens” value [2]?
Answer: Its value is 4 (herbicidal effect of not less than 70% by weight and less than 90% by weight).

Question: What about the “Herbicidal activity Stellaria media” value [3] of the same molecule?
Answer: The value was 4 (herbicidal effect of not less than 70% by weight and less than 90% by weight).

Question: What about the “Herbicidal activity Setaria viridis” value [4] of the same molecule?
Answer: The value was 4 (herbicidal effect of not less than 70% by weight and less than 90% by weight).

Question: And the “Herbicidal activity Chenopodium album” value [5]?
Answer: Its value is 4 (herbicidal effect of not less than 70% by weight and less than 90% by weight).

Question: And the “Herbicidal activity Triticum aestivum” value [6]?
Answer: The value was 0 (herbicidal effect of not less than 0% by weight and less than 10% by weight).

Question: What about the “Herbicidal activity Glycine max” value [7] of the same molecule?
Answer: Its value is 0 (herbicidal effect of not less than 0% by weight and less than 10% by weight).

Question: And the “Herbicidal activity Triticum aestivum” value [8]?
Answer: The value was 0 (herbicidal effect of not less than 0% by weight and less than 10% by weight).

Question: And the “Herbicidal activity Glycine max” value [9]?
Answer: The value was 0 (herbicidal effect of not less than 0% by weight and less than 10% by weight).

Question: What about the “Herbicidal activity Echinochloa spp.” value [10] of the same molecule?
Answer: The value was 3 (herbicidal effect of not less than 50% by weight and less than 70% by weight).

Question: What about the “Herbicidal activity Scirpus juncoides” value [11] of the same molecule?
Answer: Its value is 3 (herbicidal effect of not less than 50% by weight and less than 70% by weight).

Question: What about the “Herbicidal activity Monochoria vaginalis” value [12] of the same molecule?
Answer: The value was 3 (herbicidal effect of not less than 50% by weight and less than 70% by weight).

Question: And the “Herbicidal activity Ammannia multiflora” value [13]?
Answer: The value was 3 (herbicidal effect of not less than 50% by weight and less than 70% by weight).

Question: And the “Herbicidal activity Digitaria adscendens” value [14]?
Answer: Its value is 4 (herbicidal effect of not less than 70% by weight and less than 90% by weight).

Question: And the “Herbicidal activity Stellaria media” value [15]?
Answer: The value was 4 (herbicidal effect of not less than 70% by weight and less than 90% by weight).

Question: What about the “Herbicidal activity Setaria viridis” value [16] of the same molecule?
Answer: Its value is 4 (herbicidal effect of not less than 70% by weight and less than 90% by weight).

Question: And the “Herbicidal activity Chenopodium album” value [17]?
Answer: Its value is 4 (herbicidal effect of not less than 70% by weight and less than 90% by weight).

Question: With `COC=C(Cn1nc(-c2ccccc2)c(C)c1C)C(=O)OC` [Compound 33] as the molecule, how does the “Herbicidal activity Oryza sativa” value [1] read?
Answer: The value was 1 (herbicidal effect of not less than 10% by weight and less than 30% by weight).

Question: And the “Herbicidal activity Digitaria adscendens” value [2]?
Answer: Its value is 5 (herbicidal effect of not less than 90% by weight).

Question: And the “Herbicidal activity Stellaria media” value [3]?
Answer: The value was 5 (herbicidal effect of not less than 90% by weight).

Question: And the “Herbicidal activity Setaria viridis” value [4]?
Answer: The value was 4 (herbicidal effect of not less than 70% by weight and less than 90% by weight).

Question: And the “Herbicidal activity Chenopodium album” value [5]?
Answer: The value was 5 (herbicidal effect of not less than 90% by weight).

Question: And the “Herbicidal activity Triticum aestivum” value [6]?
Answer: The value was 0 (herbicidal effect of not less than 0% by weight and less than 10% by weight).

Question: What about the “Herbicidal activity Glycine max” value [7] of the same molecule?
Answer: Its value is 0 (herbicidal effect of not less than 0% by weight and less than 10% by weight).

Question: What about the “Herbicidal activity Triticum aestivum” value [8] of the same molecule?
Answer: Its value is 0 (herbicidal effect of not less than 0% by weight and less than 10% by weight).

Question: And the “Herbicidal activity Glycine max” value [9]?
Answer: The value was 0 (herbicidal effect of not less than 0% by weight and less than 10% by weight).

Question: What about the “Herbicidal activity Echinochloa spp.” value [10] of the same molecule?
Answer: Its value is 5 (herbicidal effect of not less than 90% by weight).

Question: What about the “Herbicidal activity Scirpus juncoides” value [11] of the same molecule?
Answer: The value was 5 (herbicidal effect of not less than 90% by weight).

Question: What about the “Herbicidal activity Monochoria vaginalis” value [12] of the same molecule?
Answer: Its value is 5 (herbicidal effect of not less than 90% by weight).

Question: What about the “Herbicidal activity Ammannia multiflora” value [13] of the same molecule?
Answer: The value was 5 (herbicidal effect of not less than 90% by weight).

Question: What about the “Herbicidal activity Digitaria adscendens” value [14] of the same molecule?
Answer: The value was 4 (herbicidal effect of not less than 70% by weight and less than 90% by weight).

Question: What about the “Herbicidal activity Stellaria media” value [15] of the same molecule?
Answer: The value was 4 (herbicidal effect of not less than 70% by weight and less than 90% by weight).

Question: What about the “Herbicidal activity Setaria viridis” value [16] of the same molecule?
Answer: Its value is 4 (herbicidal effect of not less than 70% by weight and less than 90% by weight).

Question: And the “Herbicidal activity Chenopodium album” value [17]?
Answer: The value was 4 (herbicidal effect of not less than 70% by weight and less than 90% by weight).
